First: CCOP(=O)(CNc1cc(Oc2ccc(C(F)(F)F)cn2)ccc1[N+](=O)[O-])OCC
Second: COCCCS(=O)(=O)NC(=O)/C=C/c1cc(OCC2CC2)nn1Cc1ccc(C(F)(F)F)cc1Cl
The melting point of the first is lower: 74 to 76 °C for the first, 137 to 138 °C for the second.

Compared with `COc1cc2c(cc1OC(C)C)OC(C)(C)C(Cl)=C2Cl`, `COc1cc(C(C)N(O)C(N)=O)cc(OC)c1OC(C)c1ccccc1` (stereo not drawn) is higher in melting point: 80 to 85 °C for the first, 129 to 132 °C for the second.

First: Clc1ccc(C2(CBr)OCC(COc3ccc(Cl)c4ccccc34)O2)c(Cl)c1 (stereo not drawn)
Second: COc1ccc2c(Cc3ncc(Cl)cc3Cl)nncc2c1C=Cc1ccccc1
The melting point of the first is lower: 123 °C for the first, 180 to 182 °C for the second.

First: N#Cc1ccccc1NC(=O)c1ccc(-n2nc(C(F)(F)F)cc2C(F)(F)F)cc1
Second: O=C(NN1CCCCC1)c1nc(-c2ccc(Cl)cc2Cl)n(-c2ccc(Cl)cc2)c1CF
The melting point of the first is higher: 203 to 205 °C for the first, 162 to 163 °C for the second.

Compared with `O=[N+]([O-])c1ccc2c(c1)S(=O)(=O)c1ccccc1-2`, `NS(=O)(=O)Cc1ccc2[nH]cc(CCN3C(=O)c4ccccc4C3=O)c2c1` is lower in melting point: 259 °C for the first, 186 to 188 °C for the second.

Compared with `CC(C)(C#N)c1cc(Cn2cncn2)cc(-c2ccc(OS(N)(=O)=O)c(Cl)c2)c1`, `Cc1ccc(NS(=O)(=O)c2ccc(Cl)nc2)c2[nH]cc(C#N)c12` is higher in melting point: 71 to 74 °C for the first, 262 to 263 °C for the second.

First: NC(=O)NCc1ccc(CNC(=O)[C@@H](CCCNC(N)=N[N+](=O)[O-])NC(=O)Nc2cccc3ccccc23)cc1
Second: CCOC(=O)C(=O)N(CC)C(=O)OCCOc1ccc(Oc2ccccc2)cc1
The melting point of the first is higher: 210 °C for the first, 56 to 58 °C for the second.

First: CCOC(=O)c1nc(NC)sc1C(=O)CC
Second: CCCc1c(OCc2ccc(C(=O)OCC)c(OCC)c2)ccc(C(C)=O)c1O
The melting point of the first is lower: 84 to 86 °C for the first, 92 to 94 °C for the second.

First: CC(C)(C)OC(=O)N1CCC(C(=O)Nc2ccccc2Oc2ccc(Cl)cc2Cl)CC1
Second: CC(C)(C)OC(=O)NCCNC(=O)c1ncsc1-c1cccc(OCc2cccc(Cl)c2)c1
The melting point of the first is higher: 120 to 121 °C for the first, 116 to 117 °C for the second.

Compared with `CC1(C)C(=O)Nc2ccc(N)cc21`, `O=C1Nc2ccccc2Sc2c1csc2Cl` is higher in melting point: 185 to 191 °C for the first, 287 to 288 °C for the second.

First: CCCCCCCCOc1cnc(-c2ccc(C#CCCCC(C)OC(C)=O)cc2)nc1 (stereo not drawn)
Second: CN(C)CCCCCCCCCCOc1ccc(C(=O)c2ccccc2)cc1
The melting point of the first is higher: 58 to 59 °C for the first, 33 to 35 °C for the second.

Compared with `O=C1C(=CO)CC[C@H]2C(=O)C(=CO)CC[C@H]12`, `NNC1=NC2CCCc3cccc(c32)N1` (stereo not drawn) is higher in melting point: 155 to 157 °C for the first, 191 to 193 °C for the second.

First: COc1cc(OC)nc(NC(=O)NS(=O)(=O)c2ccccc2-c2nccn2C)n1
Second: CCCOc1ccccc1-c1nc2nc(NCC(C)OC)ncc2c(=O)[nH]1 (stereo not drawn)
The melting point of the first is lower: 182 to 183 °C for the first, 193 to 194 °C for the second.

Compared with `CC[C@H](C)[C@H](NC(C)=O)C(=O)N[C@H](C(=O)N[C@@H](CC1CCCCC1)[C@@H](O)[C@@H](O)CC(C)C)[C@@H](C)CC`, `COC(=O)C(=C(C)C)N1C(=O)C(NC(=O)COc2ccccc2)C1SN1CCCCC1` (stereo not drawn) is lower in melting point: 247 to 248 °C for the first, 65 °C for the second.

Compared with `COc1nc2ccccc2nc1NC(=O)N1CCN(c2c(C)c(C)cc(C)c2C)CC1`, `Cc1cc(N2CCc3ncccc3C2)nc(N2CCC(F)(F)CC2)c1[N+](=O)[O-]` is lower in melting point: 237 to 239 °C for the first, 168 to 169 °C for the second.

Compared with `COC(=O)Cc1c(F)cccc1Cl`, `CCOC(=O)c1cnn(-c2ccc(Cl)cc2)c1N` is higher in melting point: 79 to 80 °C for the first, 150 to 156 °C for the second.

Compared with `CC(=O)c1cc(CBr)cc(CBr)c1`, `CNC(=O)c1sc2cnccc2c1Oc1ccc(COC)cc1` is higher in melting point: 87 to 88 °C for the first, 163 to 164 °C for the second.

First: Cc1cccc(C(Nc2ccccc2)P(=O)(Oc2ccccc2)Oc2ccccc2)n1 (stereo not drawn)
Second: CC(O)c1ccc(-c2ccc(OCc3ccccc3)cc2)cc1 (single isomer, unassigned; (+))
The melting point of the first is lower: 110 to 112 °C for the first, 158 to 159 °C for the second.

Going from `c1ccc(Cn2c(NC3CCN(C4CCCCC4)CC3)nc3ccccc32)cc1` to `Brc1ccc(N2CCC(Cc3ccccc3)CC2)nc1`, the melting point falls from 143 °C to 78 °C.

Compared with `CNC(=NS(=O)(=O)c1ccc(C)cc1)Nc1cc(C(C)c2ccc(-c3ccccc3)c(F)c2)on1` (stereo not drawn), `CS(=O)(=O)c1ccc(-c2[nH]c(SCc3ccc4ccccc4n3)nc2-c2ccc(F)cc2)cc1` is higher in melting point: 125 to 127 °C for the first, 179 to 182 °C for the second.

First: Cc1cc(NS(=O)(=O)c2ccc(NCNc3ccc(S(=O)(=O)Nc4cc(C)on4)cc3)cc2)no1
Second: CCC(CC)c1nc(-c2ccncc2)c(-c2ccc(Cl)cc2)n1CC
The melting point of the first is lower: 180 to 188 °C for the first, 239 to 242 °C for the second.

Compared with `Nc1nc(NCCc2ccc(CCC3CCCCC3)cc2)nc2c1ncn2C1OC(CO)C(O)C1O` (stereo not drawn), `S=C(NCCC1=CCCCC1)Nc1nc2ccccc2[nH]1` is higher in melting point: 154 to 160 °C for the first, 178 to 180 °C for the second.

First: CNC(=O)C(=NOC)c1ccccc1COc1ccc2c(c1)OCC2=NOC
Second: COc1ccc(CSc2nnc(-c3ccc4ncsc4c3)o2)cc1C(F)(F)F
The melting point of the first is lower: 143 to 145 °C for the first, 145 to 146 °C for the second.

Compared with `c1ccc(C2(Oc3cnccn3)CCNCC2)cc1`, `Nc1nc2c(sc(=O)n2CCCCC(=O)O)c(=O)[nH]1` is higher in melting point: 107 to 108 °C for the first, 263 to 265 °C for the second.

Source: a melting point compilation (Tetko et al.; mined from patent text by program, amines drawn as free bases though some values may be those of a salt)
